# In patent publication US20260363987A1, “Novel Peptide Exhibiting Skin Condition Improvement Activity and Cosmetic Composition Containing Same” (DAEBONG LS CO., LTD., priority 2023, published 2026):
# Assays:
# B16F10 cells = assay: Melanin synthesis inhibition in α-MSH-treated melanocytes; type: cell-based, mouse; settings: 72 hours
# Description: Mouse-derived melanocytes (B16F10 cells) were obtained from the American Type Culture Collection (ATCC) and used. The cells were cultured in Dulbecco's Modified Eagle's Medium (DMEM) supplemented with 1% penicillin-streptomycin and 10% fetal bovine serum (FBS) at 37 °C in a 5% CO2 incubator, and subcultured every 3 to 4 days.
# B16F10 cells were seeded at 6.0×10^4 cells/well in a 6-well plate and cultured for 24 hours at 37 °C in a 5% CO2 incubator. The culture medium was then replaced with phenol red-free, serum-free DMEM, followed by treatment with α-MSH, a melanin production-inducing hormone, and the peptide from the above Preparation Example at concentrations ranging from 1 to 100 μM. The cells were incubated for 72 hours, after which they were collected and lysed with 1 N NaOH in an 80 °C heating block to dissolve intracellular melanin. The absorbance of the resulting solution was measured at 490 nm. The control group was treated with arbutin at a concentration of 500 μg/mL.
# NHDF cells = assay: Procollagen Type I Peptide (PIP) production, EIA; type: cell-based, human
# Description: Normal Human Dermal Fibroblasts (NHDF) were obtained from Lonza (Lonza Walkersville, Inc.) and cultured in FBM (Fibroblast Basal Medium) supplemented with 0.1% hFGF-B, insulin, GA-1000, and 2% FBS at 37 °C in a 5% CO2 incubator. Subculture was performed every 2 to 3 days.
# NHDF cells were seeded at 2.0×10^4 cells/well in a 24-well plate and incubated for 24 hours at 37 °C in a 5% CO2 incubator. After incubation, the culture medium was replaced with serum-free FBM, and the peptide prepared in the above Example was applied at concentrations of 1-100 μM, followed by incubation for 24 hours. The supernatant from each experimental group was collected, and the amount of procollagen released into the medium was measured. The positive control group was treated with ascorbic acid at a concentration of 0.001 v/v %. Measurement of procollagen levels was performed using a Procollagen Type I Peptide (PIP) EIA Kit (Takara Biomedical Co.) according to the manufacturer's protocol. The quantitative results of procollagen type I peptide production following treatment with the peptide of the Example are shown in Table 2 and FIG. 3.
# HaCaT cells = assay: Hyaluronic acid (HA) production, ELISA; type: cell-based, human
# Description: The HaCaT human keratinocyte cell line was obtained from Cell Line Service GmbH (Germany). The cells were cultured in DMEM containing 1% penicillin-streptomycin and 10% fetal bovine serum (FBS) at 37 °C in a 5% CO2 incubator, and subculture was performed every 2 to 3 days.
# HaCaT cells were seeded at 1.0×10^5 cells/well in a 24-well plate and incubated for 24 hours at 37 °C in a 5% CO2 incubator. After incubation, the culture medium was replaced with serum-free DMEM, and the peptide prepared in the above Example was applied at concentrations of 50-200 μM, followed by incubation for 24 hours. The supernatant from each experimental group was collected, and the amount of hyaluronic acid (HA) released into the medium was measured. The positive control group was treated with N-acetylglucosamine at a concentration of 10 mM. Measurement of hyaluronic acid production was conducted using a Hyaluronic Acid ELISA Kit (Cusabio Biotechnology Co., Ltd.) following the manufacturer's protocol.
compound,measurement,setting,value
"OC[C@H]1O[C@@H](Oc2ccc(O)cc2)[C@H](O)[C@@H](O)[C@@H]1O [Arbutin, arbutin, reference compound]",activity at 500 µg/mL,"B16F10 cells; Mus musculus, B16-F10, 500 μg/mL, control, with α-MSH (200 nM), α-MSH alone = 100 ± 3.6, untreated = 75 ± 3.04, read-out: Melanin production",59.6 ± 0.8%
"O=C1O[C@H]([C@@H](O)CO)C(O)=C1O [Asc.A, ascorbic acid, reference compound]",activity at 10 µg/mL,"NHDF cells; Homo sapiens, NHDF, 24 h, 10 μg/mL, positive control, untreated group = 100 ± 1.29",159 ± 3.8%
"CC(=O)N[C@H]1C(O)O[C@H](CO)[C@@H](O)[C@@H]1O (stereo partly shown) [NAG, N-acetylglucosamine, reference compound]",activity at 10000 µM,"HaCaT cells; Homo sapiens, HaCaT, 24 h, 10 mM, positive control, untreated group = 100 ± 5.15",125.5 ± 1.18%
Ala-Ala-Gln-Pro-Arg (AAQPR; printed: Ala-Ala-Gln-Pro-Arg),Melanin production,"B16F10 cells; 1 μM, with α-MSH (200 nM), α-MSH alone = 100 ± 3.6, untreated = 75 ± 3.04",100.86 ± 4.32%
same,Melanin production,"B16F10 cells; 10 μM, with α-MSH (200 nM), α-MSH alone = 100 ± 3.6, untreated = 75 ± 3.04",89.62 ± 2.95%
same,Melanin production,"B16F10 cells; 100 μM, with α-MSH (200 nM), α-MSH alone = 100 ± 3.6, untreated = 75 ± 3.04",79.76 ± 4.18%
same,melanin production (in words),"B16F10 cells; 1-100 μM, with α-MSH",inhibited melanin production
same,Procollagen production,"NHDF cells; 1 μM, 24 hours, untreated group = 100 ± 1.29",105.45 ± 3.15%
same,Procollagen production,"NHDF cells; 10 μM, 24 hours, untreated group = 100 ± 1.29",129.75 ± 9.74%
same,Procollagen production,"NHDF cells; 50 μM, 24 hours, untreated group = 100 ± 1.29",132.64 ± 13.74%
same,Procollagen production,"NHDF cells; 100 μM, 24 hours, untreated group = 100 ± 1.29",134.92 ± 1.3%
same,procollagen production (in words),"NHDF cells; 1-100 μM, 24 hours",increase in procollagen production
same,Hyaluronic acid production,"HaCaT cells; 50 μM, 24 hours, untreated group = 100 ± 5.15",107.14 ± 1.08%
same,Hyaluronic acid production,"HaCaT cells; 100 μM, 24 hours, untreated group = 100 ± 5.15",130.93 ± 0.59%
same,Hyaluronic acid production,"HaCaT cells; 200 μM, 24 hours, untreated group = 100 ± 5.15",136.91 ± 6.87%
same,hyaluronic acid production (in words),"HaCaT cells; 50-200 μM, 24 hours",increase in hyaluronic acid production
